Data from PubChem BioAssay AID1963867 (Molecular Pharmacology Branch, DTP, NCI, 2024).
pIC50: −log10 of the molar value.

System: KRAS-mutant PDC tumor spheroid with HUVEC/MSC, viability
Assay: Anticancer human tumor 327498-153-R-J2-PDC patient-derived uterine carcinosarcoma cell line growth inhibition [KRAS2]
Settings: for viability, T/C: stronger effect = lower value
From the text: Multicellular complex tumor spheroid response to RAS pathway inhibitors in combination with a targeted agents in patient-derived cell lines with oncogenic KRAS variants from multiple cancer types
A high-throughput screen of multi-cell type tumor spheroids was designed to identify active combinations of targeted small molecules and KRAS pathway inhibitors. Complex spheroids include a stromal component modeled by human endothelial cells (HUVEC) and fibroblasts modeled by human mesenchymal stem cells (MSCs). The concentration ranges selected for each drug and investigational agent were based upon clinically achievable concentrations if the clinical Cmax of the agent was known.
Compounds. The drugs and investigational agents: BI-3406 (NSC825286), BAY-293 (NSC824723), batoprotafib (TNO155; NSC825523), sotorasib (AMG 510; NSC818433), MRTX1257 (NSC819558), elimusertib (BAY 1895344; NSC800525), molibresib (GSK525762; NSC774829), temuterkib (LY3214996; NSC803410), venetoclax (NSC766270), alisertib (NSC759677), olaparib (NSC753686), talazoparib (NSC767125), erdafitinib (NSC781556), ipatasertib (NSC767898), cabozantinib (NSC761068), nintedanib (NSC756659), abemaciclib (NSC768073), docetaxel (NSC628503), trametinib (NSC758246), and sapanisertib (NSC764658) were obtained from the National Cancer Institute (NCI) Developmental Therapeutics Program Chemical Repository. The FDA-approved anticancer drug set is available from the Developmental Therapeutics Program. […] The stock solutions were prepared in dimethyl sulfoxide (DMSO, Sigma-Aldrich, St. Louis, MO, cat. D2650) at 800-fold the tested concentration and stored at -70 degrees C prior to their use. All drugs and investigational agents were tested over a range starting from a high concentration at or near the clinical Cmax and decreasing in half-log increments. If the clinical Cmax for an agent had not been determined, the highest concentration tested was 10 microM.
Cell Culture. All cells were maintained in an incubator at 37 degrees C and 5% CO2 with 95% humidity. The PDC lines were cultured according to standard operating procedures established by the NCI PDMR (https://pdmr.cancer.gov/sops/default.htm). Briefly, all PDCs were thawed and cultured in Matrigel-coated flasks prepared with a working solution of 1X Ham's F-12 nutrient mix, without supplementation (Invitrogen, Waltham, MA, cat. 11765054), 100 U/mL penicillin-streptomycin (Invitrogen, cat. 15140122), and 2.5% Matrigel (Corning Inc., Corning, NY, cat. 354248) for the first three passages. All PDCs were cultured in complete DMEM/F-12 media containing advanced DMEM/F-12 (Invitrogen, cat. 12634028), 4.9% defined fetal bovine serum, heat inactivated (HyClone Laboratories Inc., Logan, UT, cat. SH30070.03HI), 389 ng/mL hydrocortisone (Sigma-Aldrich, cat. H4001), 9.7 ng/mL human EGF recombinant protein (Invitrogen, cat. PHG0313), 23.4 microg/mL adenine (Sigma-Aldrich, cat. A2786), 97.3 U/mL penicillin-streptomycin (Invitrogen, cat. 15140122), 1.9 mM L-glutamine (Invitrogen, cat. 25030081), and 9.7 microM Y-27632 dihydrochloride (Tocris Bioscience, Bristol, United Kingdom, cat. 1254). The PDCs were cultured in complete DMEM/F12 media without 9.7 microM Y-27632 dihydrochloride for at least two passages prior to the screen. The established cell line HOP-62 was cultured in RPMI 1640 medium, HEPES (Invitrogen, cat. 22400105) with 10% defined fetal bovine serum (HyClone Laboratories Inc., cat. SH30070.03) and 2 mM L-glutamine (Invitrogen, cat. 25030081). The pooled donor HUVEC were cultured in endothelial cell growth medium 2 (PromoCell, Heidelberg, Germany, cat. C-22011) and the hMSC were cultured in mesenchymal stem cell growth medium 2 (PromoCell, cat. C-28009). For all experiments, HUVEC and hMSC were used at passages </=5, while the malignant cell lines were used at passages </=15. […]

[1] = curve of first compound, second compound 0.1 µM
[2] = curve of first compound, second compound 0.316 µM
[3] = curve of first compound, second compound 1 µM
[4] = curve of first compound, second compound 3.16 µM
[5] = curve of first compound, second compound 10 µM
[6] = second compound 0.1 µM, first compound 0.00316 µM
[7] = second compound 0.1 µM, first compound 0.01 µM
[8] = second compound 0.1 µM, first compound 0.0316 µM
[9] = second compound 0.1 µM, first compound 0.1 µM
[10] = second compound 0.316 µM, first compound 0.00316 µM
[11] = second compound 0.316 µM, first compound 0.01 µM
[12] = second compound 0.316 µM, first compound 0.0316 µM
[13] = second compound 0.316 µM, first compound 0.1 µM
[14] = second compound 1 µM, first compound 0.00316 µM
[15] = second compound 1 µM, first compound 0.01 µM
[16] = second compound 1 µM, first compound 0.0316 µM
[17] = second compound 1 µM, first compound 0.1 µM
[18] = second compound 3.16 µM, first compound 0.00316 µM
[19] = second compound 3.16 µM, first compound 0.01 µM
[20] = second compound 3.16 µM, first compound 0.0316 µM
[21] = second compound 3.16 µM, first compound 0.1 µM
[22] = second compound 10 µM, first compound 0.00316 µM
[23] = second compound 10 µM, first compound 0.01 µM
[24] = second compound 10 µM, first compound 0.0316 µM
[25] = second compound 10 µM, first compound 0.1 µM
[26] = second compound 0.1 µM, first compound 0.316 µM
[27] = second compound 0.1 µM, first compound 1 µM
[28] = second compound 0.316 µM, first compound 0.316 µM
[29] = second compound 0.316 µM, first compound 1 µM
[30] = second compound 1 µM, first compound 0.316 µM
[31] = second compound 1 µM, first compound 1 µM
[32] = second compound 3.16 µM, first compound 0.316 µM
[33] = second compound 3.16 µM, first compound 1 µM
[34] = second compound 10 µM, first compound 0.316 µM
[35] = second compound 10 µM, first compound 1 µM
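Also: spheroids exposed to agents for seven days before reading.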
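For viability, T/C in this document: 100% = DMSO vehicle wells so lower means fewer viable cells.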

## CN(C)C/C=C/C(=O)Nc1cc2c(Nc3ccc(F)c(Cl)c3)ncnc2cc1O[C@H]1CCOC1
Compound 0.000316 µM
  viability, T/C: 99.1% [middle of 5 runs]
Compound 0.001 µM
  viability, T/C: 97% [middle of 5 runs]
Compound 0.00316 µM
  viability, T/C: 95.1% [middle of 5 runs]
Compound 0.01 µM
  viability, T/C: 104% [middle of 5 runs]
Compound 0.0316 µM
  viability, T/C: 100% [middle of 5 runs]
Compound 0.1 µM
  viability, T/C: 90.8% [middle of 5 runs]
Curve of compound
  pIC50: < 7.00

## Cn1ncnc1[C@H]1c2n[nH]c(=O)c3cc(F)cc(c23)N[C@@H]1c1ccc(F)cc1 + C=CC(=O)N1CCN(c2nc(=O)n(-c3c(C)ccnc3C(C)C)c3nc(-c4c(O)cccc4F)c(F)cc23)C(C)C1
[1]
  pIC50: 8.41
[2]
  pIC50: 8.46
[3]
  pIC50: 8.71
[4]
  pIC50: 8.76
[5]
  pIC50: > 9.50
Second compound 0.1 µM, first compound 0.000316 µM
  viability, T/C: 63.7%
Second compound 0.1 µM, first compound 0.001 µM
  viability, T/C: 58.6%
[6]
  viability, T/C: 54%
[7]
  viability, T/C: 36.1%
[8]
  viability, T/C: 22.2%
[9]
  viability, T/C: 15.6%
Second compound 0.316 µM, first compound 0.000316 µM
  viability, T/C: 54.8%
Second compound 0.316 µM, first compound 0.001 µM
  viability, T/C: 60.3%
[10]
  viability, T/C: 49.1%
[11]
  viability, T/C: 36.9%
[12]
  viability, T/C: 19.8%
[13]
  viability, T/C: 15.4%
Second compound 1 µM, first compound 0.000316 µM
  viability, T/C: 59%
Second compound 1 µM, first compound 0.001 µM
  viability, T/C: 59.5%
[14]
  viability, T/C: 42.7%
[15]
  viability, T/C: 34.1%
[16]
  viability, T/C: 21%
[17]
  viability, T/C: 15.9%
Second compound 3.16 µM, first compound 0.000316 µM
  viability, T/C: 55.9%
Second compound 3.16 µM, first compound 0.001 µM
  viability, T/C: 53%
[18]
  viability, T/C: 47%
[19]
  viability, T/C: 32.4%
[20]
  viability, T/C: 21.7%
[21]
  viability, T/C: 14.8%
Second compound 10 µM, first compound 0.000316 µM
  viability, T/C: 39.9%
Second compound 10 µM, first compound 0.001 µM
  viability, T/C: 45.1%
[22]
  viability, T/C: 34.1%
[23]
  viability, T/C: 20.5%
[24]
  viability, T/C: 16.9%
[25]
  viability, T/C: 13.4%

## COc1cc(Nc2ncc3c(n2)-c2ccc(Cl)cc2C(c2c(F)cccc2OC)=NC3)ccc1C(=O)O + COc1cc2nc(C)nc(NC(C)c3cc(N)cc(C(F)(F)F)c3)c2cc1OC1CCOC1
[1]
  pIC50: > 7.50
[2]
  pIC50: > 7.50
[3]
  pIC50: > 7.50
[4]
  pIC50: > 7.50
[5]
  pIC50: > 7.50
[8]
  viability, T/C: 17.7%
[9]
  viability, T/C: 12.6%
[26]
  viability, T/C: 9.32%
[27]
  viability, T/C: 9.41%
Second compound 0.1 µM, first compound 3.16 µM
  viability, T/C: 13.8%
Second compound 0.1 µM, first compound 10 µM
  viability, T/C: 12.8%
[12]
  viability, T/C: 16.1%
[13]
  viability, T/C: 11.8%
[28]
  viability, T/C: 12.2%
[29]
  viability, T/C: 9.86%
Second compound 0.316 µM, first compound 3.16 µM
  viability, T/C: 12.5%
Second compound 0.316 µM, first compound 10 µM
  viability, T/C: 12.2%
[16]
  viability, T/C: 13.3%
[17]
  viability, T/C: 10.3%
[30]
  viability, T/C: 13.1%
[31]
  viability, T/C: 10.5%
Second compound 1 µM, first compound 3.16 µM
  viability, T/C: 11.7%
Second compound 1 µM, first compound 10 µM
  viability, T/C: 11.5%
[20]
  viability, T/C: 13.1%
[21]
  viability, T/C: 10.9%
[32]
  viability, T/C: 9.78%
[33]
  viability, T/C: 9.93%
Second compound 3.16 µM, first compound 3.16 µM
  viability, T/C: 10.5%
Second compound 3.16 µM, first compound 10 µM
  viability, T/C: 10.5%
[24]
  viability, T/C: 8.09%
[25]
  viability, T/C: 8.45%
[34]
  viability, T/C: 5.81%
[35]
  viability, T/C: 4.52%
Second compound 10 µM, first compound 3.16 µM
  viability, T/C: 8.87%
Second compound 10 µM, first compound 10 µM
  viability, T/C: 4.93%

## CCN1CCN(Cc2ccc(Nc3ncc(F)c(-c4cc(F)c5nc(C)n(C(C)C)c5c4)n3)nc2)CC1 + C=CC(=O)N1CCN(c2nc(=O)n(-c3c(C)ccnc3C(C)C)c3nc(-c4c(O)cccc4F)c(F)cc23)C(C)C1
[1]
  pIC50: 8.28
[2]
  pIC50: > 8.50
[3]
  pIC50: > 8.50
[4]
  pIC50: > 8.50
[5]
  pIC50: > 8.50
[6]
  viability, T/C: 56.9%
[7]
  viability, T/C: 42.5%
[8]
  viability, T/C: 32.7%
[9]
  viability, T/C: 30.6%
[26]
  viability, T/C: 30.7%
[27]
  viability, T/C: 35.1%
[10]
  viability, T/C: 49.6%
[11]
  viability, T/C: 40.5%
[12]
  viability, T/C: 28.2%
[13]
  viability, T/C: 31.1%
[28]
  viability, T/C: 34.9%
[29]
  viability, T/C: 40%
[14]
  viability, T/C: 48.3%
[15]
  viability, T/C: 42%
[16]
  viability, T/C: 30.2%
[17]
  viability, T/C: 33.5%
[30]
  viability, T/C: 39%
[31]
  viability, T/C: 38.3%
[18]
  viability, T/C: 49.2%
[19]
  viability, T/C: 39%
[20]
  viability, T/C: 33.8%
[21]
  viability, T/C: 32.7%
[32]
  viability, T/C: 40.5%
[33]
  viability, T/C: 36.9%
[22]
  viability, T/C: 41.9%
[23]
  viability, T/C: 32.5%
[24]
  viability, T/C: 35.6%
[25]
  viability, T/C: 36.2%
[34]
  viability, T/C: 39.3%
[35]
  viability, T/C: 2.69%

## Cn1nccc1Nc1nccc(-c2cc3c(s2)C(C)(C)N(CCN2CCOCC2)C3=O)n1
Compound 0.0316 µM
  viability, T/C: 101% [middle of 5 runs]
Compound 0.1 µM
  viability, T/C: 96.8% [middle of 5 runs]
Compound 0.316 µM
  viability, T/C: 79.2% [middle of 5 runs]
Compound 1 µM
  viability, T/C: 69.1% [middle of 5 runs]
Compound 3.16 µM
  viability, T/C: 57.6% [middle of 5 runs]
Compound 10 µM
  viability, T/C: 43.9% [middle of 5 runs]
Curve of compound
  IC50: 5.75 µM [middle of 5 runs]
